# From US20110209228A1, “METHOD OF TREATMENT USING ANTIMICROBIAL COMPOSITION” (priority 2008, published 2011)
# Ends that are not written are not given here.
# B1: B6: peptide by mutagenesis based on a consensus sequence for antimicrobial C-terminal fragments of cathelicidin proteins (peptide)
# chain: MVGIVSGEFRGSFEKCVGGIDKSLGILRLSWDLVLRGILRLSWDLVLRGSSRSAAGTIWEFEAF
# modifications: Antimicrobial peptide B6
# B2: 27: antimicrobial peptide produced by mutagenesis based on SEQ ID NO: 7 and/or 8 (peptide)
# chain 1: MVLRGFLKRFGGKILRNRGRDGATLKDFLKMIATRIPH
# chain 2: MVKRGFGKRLRRKATKLGMILRRH
# modifications: Antimicrobial peptide F6; Antimicrobial peptide 27
# Tests used:
# E. coli DH5α = assay: microbroth dilution method, peptide and antibiotic combination; assay type: cell-based; settings: for synergy with antibiotics (in words): tetracycline or chloramphenicol
# Method: To determine whether or not antimicrobial peptides as described herein act in a synergistic manner with antibiotic compounds, a microbroth dilution method was performed against E. coli DH5α performed according to the guidelines of the National Committee for Clinical Laboratory Standards.
# S. pseudointermedin = settings: for activity against isolates (in words): S. pseudointermedin otitis externa isolates
# [1] = bioactivity of peptides in milk; settings: 200 μg/ml, 37° C., 30 or 60 min, data not shown
# [2] = system: Candida albicans (ATCC 753)
# Pseudomonas aeruginosa = settings: for activity against isolates (in words): Pseudomonas aeruginosa otitis externa isolates
# S. schleiferi = settings: for activity against isolates (in words): S. schleiferi otitis externa isolates
# [3] = system: Streptococcus agalactiae (ATCC 12927)
# S. uberis = settings: both high and low salt concentrations
# [4] = heat resistance of antimicrobial peptides; settings: 200 μg/ml; for antimicrobial bioactivity in phosphate buffer following heat treatment (in words): 10 mM phosphate buffer, up to 56° C. 30 min or 70° C. 15 min; for bioactivity in pasteurized milk following heat treatment (in words): pasteurised milk, up to 68° C. 30 min or 71.7° C. 20 sec, data not shown
# S. epidermis = settings: for activity against isolates (in words): S. epidermis otitis externa isolates
# [5] = system: Staphylococcus aureus (ATCC 25923)
# milk proteases = assay: Western blotting of CHO cell extracts incubated in bovine milk; settings: CHO cell extract, 2 hr
# Method: Western blotting of cell lysates was performed according to standard procedures to confirm expression of peptides in mammalian cells. Briefly, cell extracts and culture supernatants were obtained from CHO cells transfected with the vectors pCMV-SPORT6-AGG01 and pCMV-SPORT6-AGG02, resolved in 18% (w/v) SDS/polyacrylamide electrophoresis gels, transferred by electroblotting onto nitrocellulose membrane and either stained in Ponceau S or probed with polyclonal antisera. In a further example, cell extracts were incubated in bovine milk for 2 hrs prior to their preparation for electrophoresis, to determine stability in milk. Control samples comprises non-transfected CHO cell extracts and supernatants. Membranes were developed using polyclonal rabbit anti-mAGG01 serum that had been produced according to standard procedures, by immunizing rabbits with synthetic peptide (i.e., SEQ ID NO: 7).
# lactobacilli = assay: activity against lactobacilli (dairy starter culture); assay type: cell-based; settings: dairy starter culture comprising lactobacilli
# Text: In separate experiments, the peptide AGG01 (SEQ ID NO: 7) or AG002 (SEQ ID NO: 8) is shown to be suitable for use in a dairy starter culture comprising lactobacilli, especially one or more Lactis spp., in particular one or more organisms selected individually or collectively from the group consisting of: L. helveticus, L. acidophilus, L. lactis, L. bugaricus and L. citrovorum, and especially L. acidophilus.
# [6] = system: all microorganisms tested; settings: for antimicrobial activity against pathogens that cause mastitis (in words): S. uberis, E. coli, S. aureus and S. agalactiae
# S. aureus = settings: for activity against isolates (in words): S. aureus otitis externa isolates
# [7] = system: Salmonella choleraesuis (ATCC 14028)
# [8] = system: Streptococcus equi equi (ATCC 9527)
# E. coli TOP10 = assay: growth inhibition screen by expression of the peptide in host bacteria (pBAD/gIIIA, L-arabinose induction, OD600); assay type: cell-based; settings: E. coli TOP10, OD600 before and 4 hours after L-arabinose induction
# [9] = antibiotic alone (—), E. coli DH5α
# [10] = in combination with SEQ ID NO: 7, E. coli DH5α
# [11] = in combination with SEQ ID NO: 8, E. coli DH5α
molecule,measurement,setting,value
CC1(C)S[C@@H]2[C@H](NC(=O)[C@H](N)c3ccccc3)C(=O)N2[C@H]1C(=O)O [Ampicillin],MIC of antibiotic,E. coli DH5α; [9],2 µg/mL
same,MIC of antibiotic,E. coli DH5α; [10],2 µg/mL
same,MIC of antibiotic,E. coli DH5α; [11],4 µg/mL
O=C(N[C@H](CO)[C@H](O)c1ccc([N+](=O)[O-])cc1)C(Cl)Cl [Chloramphenicol],MIC of antibiotic,E. coli DH5α; [9],4 µg/mL
same,MIC of antibiotic,E. coli DH5α; [10],1 µg/mL
same,MIC of antibiotic,E. coli DH5α; [11],2 µg/mL
CN(C)[C@@H]1C(O)=C(C(N)=O)C(=O)[C@@]2(O)C(O)=C3C(=O)c4c(O)cccc4[C@@](C)(O)[C@H]3C[C@@H]12 [Tetracycline],MIC of antibiotic,E. coli DH5α; [9],2 µg/mL
same,MIC of antibiotic,E. coli DH5α; [10],0.25 µg/mL
same,MIC of antibiotic,E. coli DH5α; [11],0.5 µg/mL
KRGFGKKLRKRLKKFRNSIKKRLKNFNVVIPIPLP-NH2 [SEQ ID NO: 7],MIC,E. coli,1 to 8 µg/mL
same,activity against isolates (in words),E. coli; E. coli BRD/SRD isolates,especially strong activity
same,MIC,B. bronchiseptica,1 to 2 µg/mL
same,activity against isolates (in words),B. bronchiseptica; B. bronchiseptica BRD/SRD isolates,especially strong activity
same,MIC,S. pseudointermedin,1 to 2 µg/mL
same,activity against isolates (in words),S. pseudointermedin,especially strong activity
same,MIC,P. multicoda,16 µg/mL
same,antimicrobial bioactivity in fresh milk (in words),[1],retained
same,antimicrobial bioactivity in pasteurized milk (in words),[1],slightly reduced
same,MIC,[2],5.48 ± 0.16 µg/mL
same,MIC,Pseudomonas aeruginosa,2 to 4 µg/mL
same,activity against isolates (in words),Pseudomonas aeruginosa,Strong antimicrobial activity
same,synergy with antibiotics (in words),E. coli DH5α; E. coli DH5α,act synergistically
same,MIC,S. schleiferi,2 to 4 µg/mL
same,activity against isolates (in words),S. schleiferi,especially strong activity
same,MIC,A. pleuropneumoniae,8 µg/mL
same,activity against isolates (in words),A. pleuropneumoniae; A. pleuropneumoniae BRD/SRD isolates,Intermediate activity
same,MIC,S. choleraesuis,4 to 8 µg/mL
same,MIC,[3],3.81 µg/mL
same,MIC,P. haemolytica,1 to 16 µg/mL
same,activity against isolates (in words),P. haemolytica; P. haemolytica BRD/SRD isolates,possibly also against P. haemolytica
same,MIC,H. somnus,16 µg/mL
same,activity against isolates (in words),H. somnus; H. somnus BRD/SRD isolates,weaker activity
same,inhibiting growth of and/or killing S. uberis (in words),S. uberis,capable of inhibiting growth of and/or killing S. uberis
same,MIC,S. suis,16 to 32 µg/mL
same,activity against isolates (in words),S. suis; S. suis BRD/SRD isolates,weaker activity
same,antimicrobial bioactivity in phosphate buffer following heat treatment (in words),[4],retain their antimicrobial bioactivity
same,bioactivity in pasteurized milk following heat treatment (in words),[4],"active in pasteurized milk, even following heat treatment"
same,MIC,S. epidermis,1 µg/mL
same,activity against isolates (in words),S. epidermis,especially strong activity
same,MIC,[5],5.72 ± 0.37 µg/mL
same,"presence of peptide following incubation with bovine milk (Western blot, in words)",milk proteases,present
same,activity against lactobacilli (in words),lactobacilli,low activity against lactobacilli
same,antimicrobial activity against pathogens that cause mastitis (in words),[6],exhibited antimicrobial activity
same,"MIC, active against all microorganisms tested",[6]; summary of Table 1,less than 10 μg/ml
same,MIC,S. aureus,2 µg/mL
same,activity against isolates (in words),S. aureus,especially strong activity
KRGLWESLKRKATKLGDDIRNTLRNFKIKFPVPRQ-NH2 [SEQ ID NO: 8],MIC,E. coli,8 to 32 µg/mL
same,MIC,B. bronchiseptica,32 µg/mL
same,MIC,S. pseudointermedin,1 µg/mL
same,activity against isolates (in words),S. pseudointermedin,especially strong activity
same,MIC,P. multicoda,8 to 32 µg/mL
same,antimicrobial bioactivity in fresh milk (in words),[1],reduced or inhibited
same,antimicrobial bioactivity in pasteurized milk (in words),[1],reduced or inhibited
same,MIC,[2],10.01 ± 0.47 µg/mL
same,MIC,Pseudomonas aeruginosa,8 to 32 µg/mL
same,activity against isolates (in words),Pseudomonas aeruginosa,slightly weaker activity
same,synergy with antibiotics (in words),E. coli DH5α; E. coli DH5α,act synergistically
same,MIC,S. schleiferi,2 to 4 µg/mL
same,activity against isolates (in words),S. schleiferi,especially strong activity
same,MIC,A. pleuropneumoniae,16 µg/mL
same,MIC,S. choleraesuis,>64 µg/mL
same,MIC,[3],1.2 µg/mL
same,MIC,[7],9.32 ± 0.38 µg/mL
same,MIC,P. haemolytica,4 to 64 µg/mL
same,MIC,H. somnus,32 µg/mL
same,MIC,[8],4.85 ± 0.35 µg/mL
same,MIC,S. suis,4 to 8 µg/mL
same,antimicrobial bioactivity in phosphate buffer following heat treatment (in words),[4],retain their antimicrobial bioactivity
same,bioactivity in pasteurized milk following heat treatment (in words),[4],reduced or inhibited
same,MIC,S. epidermis,2 µg/mL
same,activity against isolates (in words),S. epidermis,especially strong activity
same,MIC,[5],5.44 ± 0.49 µg/mL
same,activity against lactobacilli (in words),lactobacilli,low activity against lactobacilli
same,antimicrobial activity against pathogens that cause mastitis (in words),[6],has antimicrobial activity
same,MIC,S. aureus,4 µg/mL
same,activity against isolates (in words),S. aureus,especially strong activity
B1,antimicrobial activity: inhibiting bacterial growth and/or killing bacteria on expression (in words),E. coli TOP10,having antimicrobial activity
B2,antimicrobial activity: inhibiting bacterial growth and/or killing bacteria on expression (in words),E. coli TOP10,having antimicrobial activity
